Entries after “also recorded” stand apart in the source; their conditions may differ.
Tests used:
Assay type in all cases: biochemical
[1] = target: T1, hABHD12 (Homo sapiens, UniProt Q8N2K0); test: Competitive ABPP with TAMRA-FP in hABHD12-HEK293 lysates; settings: 1 h inhibitor, 5 min probe
T1 construct: expressed in transfected cells; host or cells: HEK293 (transient)
T1 sequence (Q8N2K0 1-398): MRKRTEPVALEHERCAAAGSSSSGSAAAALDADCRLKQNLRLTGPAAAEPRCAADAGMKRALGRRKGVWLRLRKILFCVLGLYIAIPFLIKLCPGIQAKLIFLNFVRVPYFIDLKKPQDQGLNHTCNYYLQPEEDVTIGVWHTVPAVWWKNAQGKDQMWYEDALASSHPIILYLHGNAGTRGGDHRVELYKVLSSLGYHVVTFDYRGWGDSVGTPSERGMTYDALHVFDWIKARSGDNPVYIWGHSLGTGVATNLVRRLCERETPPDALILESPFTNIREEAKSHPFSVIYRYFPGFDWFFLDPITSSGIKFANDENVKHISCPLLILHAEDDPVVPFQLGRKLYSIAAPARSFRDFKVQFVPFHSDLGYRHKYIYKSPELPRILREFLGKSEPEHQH
Description: (§1) Competitive ABPP using HEK293 cell lysates and mouse brain membranes was conducted to visualize effects of selected triterpenoids on the binding of the active site serine-targeting fluorescent fluorophosphonate probe TAMRA-FP following outlines of previous protocols, [31]. Briefly, lysates (25 µg) of HEK293 cells with or without (Mock) hABHD12 overexpression or mouse wholebrain membranes (100 µg) were treated for 1 h with DMSO or the inhibitor, after which TAMRA-FP labelling was conducted for 5 min (lysates) or 1 hour (membranes) at RT (final probe concentration 2 µM). The reaction was quenched by addition of gel loading buffer (followed by boiling for 5 min in the case of lysates), after which 10 µg protein (10 µl) was loaded per lane and the proteins were resolved in 10% SDS-PAGE together with standards. TAMRA-FP labeling was visualized (λex 552; λem 575 nm) by a fluorescent reader (FLA-3000 laser fluorescence scanner, Fujifilm, Tokyo, Japan). The intensity of bands was quantified using ImageJ, a freely available image analysis software (http://rsbweb.nih.gov/ij/).

[2] = target: T2, ABHD12 (Mus musculus, UniProt Q99LR1); test: Competitive ABPP with TAMRA-FP in mouse brain membrane proteome; settings: mouse brain membranes, 1 h inhibitor, 1 h probe
T2 construct: the sole serine hydrolase targeted by the triterpenoids in native brain membrane proteome; from tissue; host or cells: mouse whole-brain membranes
T2 sequence (Q99LR1 1-398): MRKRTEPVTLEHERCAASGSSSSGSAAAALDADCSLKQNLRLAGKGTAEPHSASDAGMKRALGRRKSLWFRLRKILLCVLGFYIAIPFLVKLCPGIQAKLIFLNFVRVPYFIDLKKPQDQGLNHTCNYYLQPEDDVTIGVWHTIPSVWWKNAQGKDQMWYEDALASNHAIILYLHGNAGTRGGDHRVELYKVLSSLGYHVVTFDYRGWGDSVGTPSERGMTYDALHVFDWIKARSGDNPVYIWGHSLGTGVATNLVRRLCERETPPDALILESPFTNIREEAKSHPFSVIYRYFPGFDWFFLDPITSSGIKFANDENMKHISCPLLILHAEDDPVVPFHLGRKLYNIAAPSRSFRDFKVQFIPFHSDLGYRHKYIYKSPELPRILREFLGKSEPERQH
Description: as §1
(§2) For ABPP experiments (Figure 6C) and cannabinoid receptor activity assays (Table S2), membranes prepared from brain tissue of 4-week-old male rodents were used. The animals were obtained from the National Laboratory Animal Centre, University of Eastern Finland. Approval for the harvesting of animal tissue was obtained from the local welfare officer of the University of Eastern Finland.

[3] = target: T1, hABHD12; test: Fluorescent glycerol assay of 1-AG hydrolysis in hABHD12-HEK293 lysates; settings: hABHD12-HEK293 lysates
[4] = tested on: metabolic serine hydrolases; test: Competitive ABPP, other serine hydrolases of mouse brain membrane proteome
Description: as §1
For ABPP experiments (Figure 6C) and cannabinoid receptor activity assays (Table S2), membranes prepared from brain tissue of 4-week-old male rodents were used. The animals were obtained from the National Laboratory Animal Centre, University of Eastern Finland. […]

[5] = target: T3, hABHD6 (Homo sapiens, UniProt Q9BV23); test: Fluorescent glycerol assay in hABHD6-HEK293 lysates; settings: 10 µM; NI = no inhibition at 10 µM; read-out: hABHD6 Remaining activity % control ± s.e.m (n=3)
T3 construct: expressed in transfected cells; host or cells: HEK293 (transient)
T3 sequence (Q9BV23 1-337): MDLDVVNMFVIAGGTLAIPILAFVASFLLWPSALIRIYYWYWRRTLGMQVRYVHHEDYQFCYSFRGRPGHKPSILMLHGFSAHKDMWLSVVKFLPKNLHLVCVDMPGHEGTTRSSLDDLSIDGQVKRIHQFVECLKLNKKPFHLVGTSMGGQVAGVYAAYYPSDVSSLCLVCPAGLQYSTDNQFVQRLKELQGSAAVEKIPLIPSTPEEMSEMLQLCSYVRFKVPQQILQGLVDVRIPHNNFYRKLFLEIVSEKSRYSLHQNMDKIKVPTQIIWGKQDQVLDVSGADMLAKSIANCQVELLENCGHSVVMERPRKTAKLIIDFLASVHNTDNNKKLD
Description: (§3) Glycerol liberated from 1-AG hydrolysis was determined with a sensitive fluorescent assay using lysates of HEK293 cells with transient overexpression of hABHD12, hABHD6 or hMAGL, essentially as previously described. […] Fluorescence (λex 530; λem 590 nm) was monitored using a Tecan Infinite M200 plate reader (Tecan Group Ltd., Männedorf, Switzerland). Inhibitory activities of selected compounds towards FAAH were determined using membranes of hFAAH overexpressing COS-7 cells, essentially as previously described. The final incubation volume (100 µL) contained 1 µg of protein and the substrate concentration was 20 µM (10 nM of ^3H-anandamide having specific activity of 60 Ci/mmol and concentration of 1 mCi/mL).

[6] = target: T4, CB1R (Rattus norvegicus, UniProt P20272); test: [35S]GTPγS binding, CB1R antagonist activity, rat cerebellar membranes; settings: 10 µM
T4 construct: membranes prepared from brain tissue of 4-week-old male rodents were used; from tissue; host or cells: rat cerebellar membranes
T4 sequence (P20272 whole entry): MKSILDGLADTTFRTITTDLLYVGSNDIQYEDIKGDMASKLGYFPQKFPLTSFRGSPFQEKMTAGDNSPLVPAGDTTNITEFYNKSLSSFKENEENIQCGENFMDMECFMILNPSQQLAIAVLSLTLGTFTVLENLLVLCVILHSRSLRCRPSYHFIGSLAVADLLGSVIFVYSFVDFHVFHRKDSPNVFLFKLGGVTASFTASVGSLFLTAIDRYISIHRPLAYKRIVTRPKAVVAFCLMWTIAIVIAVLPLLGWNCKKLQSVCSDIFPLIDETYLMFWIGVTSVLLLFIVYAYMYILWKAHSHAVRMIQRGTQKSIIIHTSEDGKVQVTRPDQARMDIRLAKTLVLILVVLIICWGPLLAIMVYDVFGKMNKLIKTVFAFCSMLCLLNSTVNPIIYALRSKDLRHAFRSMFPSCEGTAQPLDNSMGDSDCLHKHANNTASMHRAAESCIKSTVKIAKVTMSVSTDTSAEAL
Description: (§4) The CB1 and CB2 receptor activity of the selected compounds (10 µM) were measured using the GTPγS binding assay according to the previously described methods, [33].
as §2

[7] = target: T5, hMAGL (Homo sapiens, UniProt Q99685); test: Fluorescent glycerol assay in hMAGL-HEK293 lysates; settings: 10 µM; read-out: hMAGL Remaining activity % control ± s.e.m (n=3)
T5 construct: expressed in transfected cells; host or cells: HEK293 (transient)
T5 sequence (Q99685 1-303): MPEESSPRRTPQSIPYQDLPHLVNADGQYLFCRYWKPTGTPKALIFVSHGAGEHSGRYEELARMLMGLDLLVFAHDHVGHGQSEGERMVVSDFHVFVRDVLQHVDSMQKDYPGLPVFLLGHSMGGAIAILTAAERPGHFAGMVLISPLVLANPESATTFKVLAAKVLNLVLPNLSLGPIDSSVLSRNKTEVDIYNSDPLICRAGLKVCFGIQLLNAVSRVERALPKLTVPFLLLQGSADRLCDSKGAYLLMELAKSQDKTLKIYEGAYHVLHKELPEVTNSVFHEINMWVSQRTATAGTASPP
Description: as §3

[8] = target: T6, hFAAH (Homo sapiens, UniProt O00519); test: FAAH activity, membranes of hFAAH overexpressing COS-7 cells, 3H-anandamide; settings: read-out: hFAAH Remaining activity % control (mean (range)), n=2
T6 construct: expressed in transfected cells; host or cells: COS-7
T6 sequence (O00519 1-579): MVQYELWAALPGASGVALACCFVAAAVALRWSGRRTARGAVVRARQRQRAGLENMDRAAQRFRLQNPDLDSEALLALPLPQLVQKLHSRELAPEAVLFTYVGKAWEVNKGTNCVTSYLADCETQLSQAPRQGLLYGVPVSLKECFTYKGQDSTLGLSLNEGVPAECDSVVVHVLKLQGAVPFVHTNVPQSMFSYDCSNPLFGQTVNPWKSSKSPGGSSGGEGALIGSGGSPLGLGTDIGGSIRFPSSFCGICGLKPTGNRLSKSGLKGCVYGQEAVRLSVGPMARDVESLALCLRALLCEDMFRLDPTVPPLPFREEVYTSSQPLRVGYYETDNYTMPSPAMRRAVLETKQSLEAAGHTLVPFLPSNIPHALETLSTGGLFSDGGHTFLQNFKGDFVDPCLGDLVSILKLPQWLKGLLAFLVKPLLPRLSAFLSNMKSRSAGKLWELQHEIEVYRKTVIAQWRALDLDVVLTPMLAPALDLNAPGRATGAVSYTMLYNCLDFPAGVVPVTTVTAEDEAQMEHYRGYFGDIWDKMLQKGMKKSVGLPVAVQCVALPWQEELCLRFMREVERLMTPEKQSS
Description: as §3

[9] = target: T7, hCB2R (Homo sapiens, UniProt P34972); test: [35S]GTPγS binding, CB2R agonist activity, hCB2R-CHO cell membranes; settings: 10 µM
T7 construct: expressed in transfected cells; host or cells: CHO
T7 sequence (P34972 whole entry): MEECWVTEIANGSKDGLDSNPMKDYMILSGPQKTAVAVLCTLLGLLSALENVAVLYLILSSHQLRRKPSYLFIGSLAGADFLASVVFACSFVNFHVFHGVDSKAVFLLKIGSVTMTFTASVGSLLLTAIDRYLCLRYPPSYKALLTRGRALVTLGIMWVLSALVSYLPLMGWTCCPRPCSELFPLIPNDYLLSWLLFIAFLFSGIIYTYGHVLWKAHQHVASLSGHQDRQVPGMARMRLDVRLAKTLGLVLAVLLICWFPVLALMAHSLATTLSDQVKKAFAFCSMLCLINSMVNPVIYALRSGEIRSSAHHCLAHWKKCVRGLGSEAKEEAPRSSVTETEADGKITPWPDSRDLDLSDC

[10] = target: T4, CB1R; test: [35S]GTPγS binding, CB1R agonist activity, rat cerebellar membranes; settings: 10 µM
Description: as §4, §2

[11] = target: T1, hABHD12; test: Reversibility testing, 40-fold dilution of enzyme-inhibitor complex; settings: time points 10, 20, 30, 60 and 90 min
Description: Reversibility testing was carried out as previously described. Briefly, DMSO/inhibitor (0.5 µl) was incubated together with hABHD12-HEK293 lysate (4.5 µl, 0.3 µg protein/well) in TEMN-BSA buffer for 30 min. After this, a 40-fold dilution of enzyme-inhibitor complex was brought about by addition of the substrate [1-AG, 12.5 µM final concentration, containing additionally 1% EtOH (v/v)] in 195 µl of glycerol assay mix and fluorescence was kinetically monitored at 10 min intervals for 90 min at RT.

SMILES | TAMRA-FP probe labeling of hABHD12 [1] | TAMRA-FP probe labeling of ABHD12 [2] | remaining activity at 10 µM ([3]; 10 µM, NI = no inhibition, read-out: Remaining activity at 10 µM % ± s.e.m.) | additional targets among the metabolic serine hydrolases [4] | remaining activity at 10 µM [5] | CB1R antagonist activity [35S]GTPγS binding % HU210-evoked response (Mean (range), n=2) [6] | remaining activity at 10 µM [7] | remaining activity at 10 µM [8] | CB2R agonist activity [35S]GTPγS binding % Basal (Mean (range), n=2) [9] | IC50 ([3]; three independent experiments, read-out: -logIC50±s.e.m. (converted)) | Emax ([3]; read-out: max inhibition (converted)) | CB1R agonist activity [35S]GTPγS binding % Basal (Mean (range), n=2) [10] | time-dependency of inhibitor potency (IC50) after 40-fold dilution [11]
C=C(C)[C@@H]1CC[C@]2(C(=O)N3CCCCC3)CC[C@]3(C)[C@H](CC[C@@H]4[C@@]5(C)CC[C@H](O)C(C)(C)[C@@H]5CC[C@]43C)[C@@H]12 [Compound 22] | lacked activity; also recorded: ineffective | ineffective, even at 200 µM concentration | 94 ± 0.5% |  |  |  |  |  |  |  |  |  | 
CC(C)[C@@H]1CC[C@]2(C(=O)O)CC[C@]3(C)[C@H](CC[C@@H]4[C@@]5(C)CCC(=O)C(C)(C)[C@@H]5CC[C@]43C)[C@@H]12 [Compound 23] | dose-dependently inhibited probe labeling of hABHD12 | selectively inhibited probe labeling of ABHD12; also recorded: dose-dependently inhibit TAMRA-FP labeling of ABHD12 already at 20 µM |  | no additional targets are evident | 83 ± 2.8% | 92 (90-95) % HU210-evoked response | 77.5 ± 3.1% | 98% | 98 (95-100) % Basal | 1620 nM | 89% | 89 (86-92) % Basal | 
CCCCCCCCCCC[C@@H](C[C@@H]1OC(=O)[C@H]1CCCCCC)OC(=O)[C@H](CC(C)C)NC=O [THL, tetrahydrolipstatin, reference compound] | fully prevented | prevented TAMRA-FP labeling |  |  |  |  |  |  |  |  |  |  | remained constant; also recorded: does not change in a statistically significant manner

From publication PMC4045134, “Discovery of Triterpenoids as Reversible Inhibitors of α/β-hydrolase Domain Containing 12 (ABHD12)” (PLoS ONE, 2014)
